Data from patent US20220289791A1, “LACTATE DEHYDROGENASE INHIBITOR POLYPEPTIDES FOR USE IN THE TREATMENT OF CANCER” (UNIVERSITÉ CATHOLIQUE DE LOUVAIN, priority 2019, published 2022).
*1 amine or outer side, *2 acyl side, *3 side chain or, on linkers, in order; H or OH if unused. Where a SMILES comes first, the peptide text is derived from it. Bridges are numbered along the chain shown (N, C = ends). C6F4(1,4-diyl) = Fc1c(F)c([*:2])c(F)c(F)c1[*:1]; mXylylene = c1cc(C[*:1])cc(C[*:2])c1

Key:
tetrameric LDH5 = molecular target: T1, tetrameric LDH5 (Homo sapiens, UniProt P00338); experiment: Microscale thermophoresis (MST) on tetrameric LDH5; type: binding
T1 construct: purchased Abnova
Protocol: (§1) MST measurements were performed on a Nanotemper Monolith NT.115 instrument (NanoTemper Technologies®) using Red-dye-NHS fluorescent labeling. Each LDH sample, purified to homogeneity, was labeled with the Monolith Red-dye-NHS 2nd generation labeling dye (NanoTemper Technologies®), according to the manufacturer's instructions. Measurements were performed in 50 mM sodium phosphate, pH 7.6, and 100 mM NaCl containing 0.05% Tween-20 in premium-treated capillaries (NanoTemper Technologies®). The final concentrations of either labeled protein in the assay were 100 nM. The ligands (NADH and peptides) were titrated in 1:1 dilutions following manufacturer's recommendations. All binding reactions were incubated for 5 min at room temperature after loading into capillaries. Experiments were performed in triplicates using 40% LED power, medium MST power, Laser On time 20 s and Laser Off time 3 s. Peptides were evaluated for their thermophoretic pattern, and Kd's were extracted from raw data at a 10 to 20 s MST on time according to manufacturer's instructions. Regarding interaction of 7 with LDH5, Kd was extracted from the raw fluorescence. A denaturation test was performed accordingly to manufacturer recommendation and excluded any nonspecific spectral interaction between 7 and the red-dye. […]

human LDH5 = molecular target: T2, human LDH5 (Homo sapiens, UniProt P00338); experiment: nanoDSF thermal denaturation of LDH5; type: binding; details: for effect on LDH5 stability: nanoDSF
T2 construct: purchased Abnova

tetrameric LDH1 = tetrameric LDH1 (Homo sapiens, UniProt P07195); experiment: Microscale thermophoresis (MST) on tetrameric LDH1; type: binding
Protocol: as §1

rabbit LDH5 (rLDH5) = molecular target: T3, rabbit LDH5 (rLDH5) (Oryctolagus cuniculus, UniProt P13491); experiment: Denaturation assay: rLDH5 fluorescence recovery after acidic exposure; type: biochemical; details: 200 nM rLDH5, 50 μM peptide, pH 5 then neutral pH
T3 construct: purchased Sigma-Aldrich
Protocol: Rabbit LDHA commercial solution (Sigma-Aldrich®) in an ammonium sulfate suspension (pH-7, 3.2 M) was first diluted to 1 mg/ml in a solution of NaCl 200 mM and then dialyzed at 4° C. 2×2 h against 200 mM NaCl. The stock solution of 1 mg/ml was then diluted to 30 μg/ml (800 nM) in NaCl 20 0 mM to give the assay solution. Assay solution was mixed 1:1 with acetate-chloride buffer (20 mM Acetic acid/Acetate, 180 mM NaCl, 1 mM DTT pH 5) and stored on ice for 30 minutes. Samples were then removed from ice and let warm up for 2 minutes. The acidic solution was then diluted 1:1 with a 250 mM phosphate buffer (pH 7.6) containing or not the inhibitory peptide to yield a 7.5 μg/ml (200 nM) final concentration of re-associating LDHA. Samples of the resulting solutions were then subjected to kinetic experiments of the recovery of intrinsic fluorescence (Exc=286 nm, Em=350 nm, 10′, rt).
An experiment was thus designed to follow the recovery of LDH tetramers after a dissociation step initiated by acidic conditions. […] Monitoring of the rLDH5 tetrameric state was performed by following its intrinsic tryptophan fluorescence: 6 tryptophan residues can be found in each rLDHA monomer, three of them being located at the dimer-dimer interface. As the tryptophan quantum yield decreases in a polar environment, dimeric LDHs show very weak tryptophan fluorescence compared to the tetrameric form. […] Such decay can be compared to the difference in tryptophan fluorescence between tetrameric LDH1 and dimeric LDHBtr.

human LDH1 = human LDH1 (Homo sapiens, UniProt P07195); experiment: nanoDSF thermal denaturation of LDH1; type: binding; details: for effect on LDH1 stability: nanoDSF
LDHBtr = LDHBtr (Homo sapiens, UniProt P07195); experiment: Intrinsic fluorescence assay on dimeric LDHBtr; type: biochemical
Protocol: Full tryptophan fluorescence spectra were recorded using an excitation wavelength of 286 nm and recording the emission spectra from 320 nm to 400 nm at room temperature. Raw fluorescence of every experiments was further subtracted to a corresponding control experiment without the protein. Experiments were performed in a 50 mM sodium phosphate and 100 mM NaCl, pH 7.6, buffer. For LDH dissociation into subunits, increasing amounts of guanidinium/HCl were put in contact with the studied proteins (1.3 μM), and fluorescence spectra were recorded afterwards. Guanidinium/HCl concentrations ranged from 0.3 M to 2 M.

dimeric model of LDH = dimeric model of LDH (Homo sapiens, UniProt P07195); experiment: nanoDSF thermal denaturation of dimeric LDH model; type: binding
truncated LDHB (LDHBtr) = truncated LDHB (LDHBtr) (Homo sapiens, UniProt P07195); experiment: Microscale thermophoresis (MST), Example 2, macrocycles against truncated LDHB; type: binding; details: MST traces at 10 s to 20 s on time
Protocol: MST measurements were performed on a Nanotemper Monolith NT.115 instrument (NanoTemper Technologies®) using Red-dye-NHS fluorescent labeling. Each LDH sample, purified to homogeneity, was labeled with the Monolith Red-dye-NHS 2nd generation labeling dye (NanoTemper Technologies®), according to the manufacturer's instructions. Measurements were performed in 50 mM sodium phosphate, pH 7.6, and 100 mM NaCl containing 0.05% Tween-20 in premium-treated capillaries (NanoTemper Technologies®). The final concentrations of either labeled protein in the assay were 100 nM. The ligands (NADH and peptides) were titrated in 1:1 dilutions following manufacturer's recommendations. All binding reactions were incubated for 5 min at room temperature after loading into capillaries. Experiments were performed in triplicates using 40% LED power, medium MST power, Laser On time 20 s and Laser Off time 3 s. Peptides were evaluated for their thermophoretic pattern, and Kd's were extracted from raw data at a 10 to 20 s MST on time according to manufacturer's instructions. Regarding interaction of 7 with LDH5, Kd was extracted from the raw fluorescence. A denaturation test was performed accordingly to manufacturer recommendation and excluded any nonspecific spectral interaction between 7 and the red-dye. All Kd's of interacting macrocycles and peptides were obtained in triplicate and corrected by taking into account the molecular weight of the TFA counter ion.

[1] = test system: Mia Paca-2 human pancreatic cancer cells; experiment: Seahorse OCR and ECAR measurement; type: cell-based; details: 200 μM, 4 h incubation
Protocol: Macrocyclic peptide MP7 (SEQ ID NO: 61) was evaluated at 200 μM against Mia Paca-2 human pancreatic cancer cells (ATCC®).
The oxygen consumption rate (OCR) and extracellular acidification rate (ECAR) were measured on a Seahorse XF96 analyzer (Agilent®) with a combination of XF cell mito stress kit (Agilent®) and 2-deoxy-D-glucose (2DG; Sigma Aldrich®). Seahorse experiments were performed using 10,000 cells/well in DMEM medium with 10 mmol/L of D-glucose and 1 mmol/L of L-Glutamine Cells were incubated for 1 h in a CO2-free incubator before analysis. […] Oximetry before the addition of any agent provided the basal respiration rate of the cells; ATP-linked reparation was determined after the addition of 1 μM of oligomycin and the maximal respiration rate of the cells after the addition of 1 μM of FCCP. All data were normalized to cell numbers measured right before oximetry using a SpectraMax miniMax 300 imaging cytometer (Molecular Devices®). Macrocyclic peptide MP7 in PBS or PBS alone (control experiment) were added directly into the medium and incubated with Mia Paca-2 cells during 4 h before conducting Seahorse experiments on the medium composed of the Mia Paca-2 cells with or without macrocyclic peptide MP7.

Chain of human LDH1 (P07195 whole entry): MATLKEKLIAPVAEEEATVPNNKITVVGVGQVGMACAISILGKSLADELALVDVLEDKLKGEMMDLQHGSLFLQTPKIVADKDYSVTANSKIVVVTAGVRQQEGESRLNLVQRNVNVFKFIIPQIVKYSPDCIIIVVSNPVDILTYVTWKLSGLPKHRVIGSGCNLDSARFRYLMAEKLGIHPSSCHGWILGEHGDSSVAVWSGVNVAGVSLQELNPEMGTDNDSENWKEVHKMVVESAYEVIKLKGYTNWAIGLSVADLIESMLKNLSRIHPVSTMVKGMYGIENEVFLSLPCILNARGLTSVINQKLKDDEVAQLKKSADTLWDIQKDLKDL
Chain of dimeric model of LDH (P07195 21-334): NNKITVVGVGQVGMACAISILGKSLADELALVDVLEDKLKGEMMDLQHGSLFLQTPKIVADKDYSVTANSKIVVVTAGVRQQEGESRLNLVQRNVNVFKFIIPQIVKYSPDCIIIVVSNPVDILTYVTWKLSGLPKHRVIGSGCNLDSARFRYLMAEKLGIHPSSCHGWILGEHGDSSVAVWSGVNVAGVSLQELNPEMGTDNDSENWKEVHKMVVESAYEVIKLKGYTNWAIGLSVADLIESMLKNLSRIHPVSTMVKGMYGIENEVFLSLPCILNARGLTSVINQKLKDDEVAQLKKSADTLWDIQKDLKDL
Chain of LDHBtr (P07195 21-334): as above
Chain of truncated LDHB (LDHBtr) (P07195 21-334): as above
Chain of tetrameric LDH1 (P07195 whole entry): as the sequence (P07195 whole entry) above

Compound | binding to tetrameric LDH5 (tetrameric LDH5) | effect on LDH5 stability (human LDH5) | binding to tetrameric LDH1 (tetrameric LDH1) | LDH5 fluorescence recovery after acidification (rabbit LDH5 (rLDH5)) | effect on LDH1 stability (human LDH1) | decay of LDHBtr fluorescence spectrum (LDHBtr) | destabilization of dimeric model of LDH (dimeric model of LDH) | Kd (truncated LDHB (LDHBtr)) [µM] | ΔTm at 400 µM (human LDH5; LDH-5 tetramer, MP7 at 400 μM) [°C] | glycolytic flux (ECAR) [1] | mitochondrial oxygen consumption rate (OCR) [1] | ΔTm at 400 µM (human LDH1; LDH1, MP7 at 400 μM) [°C]
CC[C@H](C)[C@H](NC(=O)[C@H](CC(C)C)NC(=O)[C@H](CCCCN)NC(=O)[C@@H]1CSCc2cccc(c2)CSC[C@H](N)C(=O)N[C@@H]([C@@H](C)O)C(=O)N[C@@H](CC(C)C)C(=O)N[C@@H](CCCCN)C(=O)N1)C(N)=O [MP1, CTLKCKLI] (H-CTLKCKLI-NH2; linker 1-5 via mXylylene; N-terminus assumed) | did not demonstrated any binding | no effect up to 500 μM | did not demonstrated any binding | significantly interfered | no effect up to 500 μM |  |  |  |  |  |  | 
CC[C@H](C)[C@H](NC(=O)[C@H](CC(C)C)NC(=O)[C@H](CCCCN)NC(=O)[C@@H]1CSc2c(F)c(F)c(c(F)c2F)SC[C@H](N)C(=O)N[C@@H]([C@@H](C)O)C(=O)N[C@@H](CC(C)C)C(=O)N[C@@H](CCCCN)C(=O)N1)C(N)=O [MP7, CTLKCKLI] (H-CTLKCKLI-NH2; linker 1-5 via C6F4(1,4-diyl); N-terminus assumed) |  | induced a destabilizing conformational change |  | significantly interfered | induced a destabilizing conformational change | did not induce a comparative decay | did not induce such destabilization | 11 | -5 | increase | strong decrease | -1.5
